{"source": "patent US4292317A", "about": "“1,4-Dihydro-quinoline-3-carboxylic acid derivatives, process for their preparation and compositions containing them” (Laboratorie Roger Bellon, priority 1977, dated 1981)", "key": {"[1]": {"system": "Arizona 6.211", "assay": "M.I.C. in vitro, nutrient agar dilution", "format": "cell-based", "details": "18 h", "protocol": "(§1) After sterilisation at 120° C., the pH was 6.8.\n(§2) The minimum inhibitory concentrations (M.I.C.) were determined by dilution of the test compounds in this mixture, the concentration ranging from 0.05 to 100 μg/cm^3 in a geometric progression with a factor of 2.\n(§3) The inoculation of the dishes was carried out by means of a multiple inoculator with 10^-3 dilutions of 18 hour old broth cultures.\n(§4) The dishes were placed in an oven at 37° C. and the readings were taken afer an incubation time of 18 hours. The M.I.C. was taken as the lowest concentration which inhibited a culture."}, "[2]": {"system": "B. subtilis", "assay": "M.I.C. in vitro, nutrient agar dilution", "format": "cell-based", "details": "Bacillus subtilis, 18 h", "protocol": "as §1, §2, §3, §4"}, "[3]": {"system": "Bord. bronchis. 4.617", "assay": "M.I.C. in vitro, nutrient agar dilution", "format": "cell-based", "details": "18 h", "protocol": "as §1, §2, §3, §4"}, "[4]": {"system": "Esch. coli 111 B4", "assay": "M.I.C. in vitro, nutrient agar dilution", "format": "cell-based", "details": "Escherichia coli, 18 h; Table III; Esch. coli 111 B4", "protocol": "as §1, §2, §3, §4"}, "[5]": {"system": "Esch. coli 54.127 O.M.S.", "assay": "M.I.C. in vitro, nutrient agar dilution", "format": "cell-based", "details": "Escherichia coli, 54.127O.M.S., 18 h", "protocol": "as §1, §2, §3, §4"}, "[6]": {"system": "Esch. coli 95 I.S.M.", "assay": "M.I.C. in vitro, nutrient agar dilution", "format": "cell-based", "details": "Escherichia coli, 95I.S.M., 18 h", "protocol": "as §1, §2, §3, §4"}, "[7]": {"system": "Klebs. pneum. 10.031", "assay": "M.I.C. in vitro, nutrient agar dilution", "format": "cell-based", "details": "18 h", "protocol": "as §1, §2, §3, §4"}, "[8]": {"system": "Pr. mirabilis Nig", "assay": "M.I.C. in vitro, nutrient agar dilution", "format": "cell-based", "details": "Proteus mirabilis, 18 h", "protocol": "as §1, §2, §3, §4"}, "[9]": {"system": "Pr. morganii A.236", "assay": "M.I.C. in vitro, nutrient agar dilution", "format": "cell-based", "details": "Morganella morganii, A.236, 18 h", "protocol": "as §1, §2, §3, §4"}, "[10]": {"system": "Pr. vulgaris 12-53", "assay": "M.I.C. in vitro, nutrient agar dilution", "format": "cell-based", "details": "Proteus vulgaris, 1253, 18 h", "protocol": "as §1, §2, §3, §4"}, "[11]": {"system": "Providentia 0223", "assay": "M.I.C. in vitro, nutrient agar dilution", "format": "cell-based", "details": "18 h", "protocol": "as §1, §2, §3, §4"}, "[12]": {"system": "Ps. aeruginosa 72.345", "assay": "M.I.C. in vitro, nutrient agar dilution", "format": "cell-based", "details": "Pseudomonas aeruginosa, 72.345, 18 h", "protocol": "as §1, §2, §3, §4"}, "[13]": {"system": "Ps. aeruginosa A.22", "assay": "M.I.C. in vitro, nutrient agar dilution", "format": "cell-based", "details": "Pseudomonas aeruginosa, A.22, 18 h", "protocol": "as §1, §2, §3, §4"}, "[14]": {"system": "S. enteritidis Danysz", "assay": "M.I.C. in vitro, nutrient agar dilution", "format": "cell-based", "details": "Salmonella enterica, ENTERITIDIS, 18 h", "protocol": "as §1, §2, §3, §4"}, "[15]": {"system": "S. oranienburg 1066", "assay": "M.I.C. in vitro, nutrient agar dilution", "format": "cell-based", "details": "Salmonella enterica, 1066, 18 h", "protocol": "as §1, §2, §3, §4"}, "[16]": {"system": "Serratia", "assay": "M.I.C. in vitro, nutrient agar dilution", "format": "cell-based", "details": "18 h", "protocol": "as §1, §2, §3, §4"}, "[17]": {"system": "Sh. sonnei I.P.S.", "assay": "M.I.C. in vitro, nutrient agar dilution", "format": "cell-based", "details": "Shigella sonnei, 18 h; Table III; Sh. sonnei I.P.S.; read-out: M.I.C.", "protocol": "as §1, §2, §3, §4"}, "[18]": {"system": "Staph. 209 P", "assay": "M.I.C. in vitro, nutrient agar dilution", "format": "cell-based", "details": "18 h", "protocol": "as §1, §2, §3, §4"}, "[19]": {"system": "Staph. 9.144", "assay": "M.I.C. in vitro, nutrient agar dilution", "format": "cell-based", "details": "18 h", "protocol": "as §1, §2, §3, §4"}, "[20]": {"system": "Strepto D.M. 19", "assay": "M.I.C. in vitro, nutrient agar dilution", "format": "cell-based", "details": "18 h", "protocol": "as §1, §2, §3, §4"}, "[21]": {"system": "Salm. typhi 0901", "assay": "microbe, parasite or virus in culture", "format": "cell-based", "details": "Salmonella enterica, 18 h; Table III; Salm. typhi 0901", "protocol": "as §1, §2, §3, §4"}, "[22]": {"system": "Escherichia coli P 5101", "assay": "Systemic infection in mice", "format": "in vivo", "details": "P5101, po, 168 h", "protocol": "(§5) The activity of the compounds according to the invention against systemic infections in mice, caused by Staphylococcus 50,774, Streptococcus pyogenes A 65, Pseudomonas aeruginosa No. 12 and Escherichia coli P 5101, has been studied.\n(§6) The infections were set up by intraperitoneal injection of a suspension of the bacterial culture corresponding to the germ studied. The products were administered orally at the time of injection, and 6 hours later. […] Aureus and for 7 days for the other germs.\n(§7) Oxolinic acid was used as the reference substance."}, "[23]": {"system": "Pseudomonas aeruginosa No. 12", "assay": "Systemic infection in mice", "format": "in vivo", "details": "NO.12, po, 168 h", "protocol": "as §5, §6, §7"}, "[24]": {"system": "Staph. aureus 50,774", "assay": "Systemic infection in mice", "format": "in vivo", "details": "Staphylococcus aureus, po, 336 h", "protocol": "as §5, §6, §7"}, "[25]": {"system": "Strept. pyogenes A. 65", "assay": "Systemic infection in mice", "format": "in vivo", "details": "Streptococcus pyogenes, A.65, po, 168 h", "protocol": "as §5, §6, §7"}, "[26]": {"system": "Escherichia coli P 5101", "assay": "M.I.C. for germ used in experimental infection", "format": "cell-based", "details": "P5101, 18 h", "protocol": "as §1, §2, §3, §4"}, "[27]": {"system": "Pseudomonas aeruginosa No. 12", "assay": "M.I.C. for germ used in experimental infection", "format": "cell-based", "details": "NO.12, 18 h", "protocol": "as §1, §2, §3, §4"}, "[28]": {"system": "Staph. aureus 50,774", "assay": "M.I.C. for germ used in experimental infection", "format": "cell-based", "details": "Staphylococcus aureus, 18 h", "protocol": "as §1, §2, §3, §4"}, "[29]": {"system": "Strept. pyogenes A. 65", "assay": "M.I.C. for germ used in experimental infection", "format": "cell-based", "details": "Streptococcus pyogenes, A.65, 18 h", "protocol": "as §1, §2, §3, §4"}, "[30]": {"assay": "in vivo", "details": "mouse, mice"}}, "data": [{"smiles": "CCn1cc(C(=O)O)c(=O)c2cc3c(cc21)OCO3", "note": "[Oxolinic acid, oxolinic acid, reference compound]", "values": [{"measurement": "MIC", "setting": "[1]", "value": 0.4, "unit": "µg/mL"}, {"measurement": "MIC", "setting": "[2]", "value": 0.1, "unit": "µg/mL"}, {"measurement": "MIC", "setting": "[3]", "value": 3.1, "unit": "µg/mL"}, {"measurement": "MIC", "setting": "[4]", "value": 0.4, "unit": "µg/mL"}, {"measurement": "MIC", "setting": "[5]", "value": 0.4, "unit": "µg/mL"}, {"measurement": "MIC", "setting": "[6]", "value": 0.1, "unit": "µg/mL"}, {"measurement": "MIC", "setting": "[7]", "value": 0.1, "unit": "µg/mL"}, {"measurement": "MIC", "setting": "[8]", "value": 0.4, "unit": "µg/mL"}, {"measurement": "MIC", "setting": "[9]", "value": 0.1, "unit": "µg/mL"}, {"measurement": "MIC", "setting": "[10]", "value": 0.05, "unit": "µg/mL"}, {"measurement": "MIC", "setting": "[11]", "value": 25, "unit": "µg/mL"}, {"measurement": "MIC", "setting": "[12]", "value": 6.2, "unit": "µg/mL"}, {"measurement": "MIC", "setting": "[13]", "value": 12.5, "unit": "µg/mL"}, {"measurement": "MIC", "setting": "[14]", "value": 0.8, "unit": "µg/mL"}, {"measurement": "MIC", "setting": "[15]", "value": 25, "unit": "µg/mL"}, {"measurement": "MIC", "setting": "[16]", "value": 0.8, "unit": "µg/mL"}, {"measurement": "MIC", "setting": "[17]", "value": 0.2, "unit": "µg/mL"}, {"measurement": "MIC", "setting": "[18]", "value": 0.8, "unit": "µg/mL"}, {"measurement": "MIC", "setting": "[19]", "value": 0.8, "unit": "µg/mL"}, {"measurement": "MIC", "setting": "[20]", "value": 25, "unit": "µg/mL"}, {"measurement": "MIC", "setting": "[21]", "value": 0.4, "unit": "µg/mL"}, {"measurement": "ED50", "setting": "[22]", "value": 17, "unit": "mg/kg"}, {"measurement": "ED90", "setting": "[22]", "value": 45.1, "unit": "mg/kg"}, {"measurement": "ED50", "setting": "[23]", "value": 70.1, "unit": "mg/kg"}, {"measurement": "ED90", "setting": "[23]", "value": 142, "unit": "mg/kg"}, {"measurement": "ED50", "setting": "[24]", "value": 53.2, "unit": "mg/kg"}, {"measurement": "ED90", "setting": "[24]", "value": 111, "unit": "mg/kg"}, {"measurement": "ED50", "setting": "[25]", "value": "> 100", "unit": "mg/kg"}, {"measurement": "ED90", "setting": "[25]", "value": "> 100", "unit": "mg/kg"}, {"measurement": "MIC", "setting": "[26]", "value": 0.2, "unit": "µg/mL"}, {"measurement": "MIC", "setting": "[27]", "value": 12.5, "unit": "µg/mL"}, {"measurement": "MIC", "setting": "[28]", "value": 1.56, "unit": "µg/mL"}, {"measurement": "MIC", "setting": "[29]", "value": 100, "unit": "µg/mL"}, {"measurement": "LD50", "setting": "[30]; iv", "value": 177, "unit": "mg/kg"}, {"measurement": "LD50", "setting": "[30]; po", "value": "> 2000", "unit": "mg/kg"}]}]}
